# According to publication PMC6225123, “Optimization of Aminoimidazole Derivatives as Src Family Kinase Inhibitors” (Molecules : A Journal of Synthetic Chemistry and Natural …, 2018):
# Read-outs that look alike come from different tables or passages of the source.
# Legend:
# [1] = molecular target: active human recombinant Src (Homo sapiens, UniProt P12931); test: Z'-LYTE kinase assay (FRET), primary screen; format: biochemical; details: isolated enzyme, mean ± SD of two independent experiments
# Chain of active human recombinant Src (P12931 whole entry): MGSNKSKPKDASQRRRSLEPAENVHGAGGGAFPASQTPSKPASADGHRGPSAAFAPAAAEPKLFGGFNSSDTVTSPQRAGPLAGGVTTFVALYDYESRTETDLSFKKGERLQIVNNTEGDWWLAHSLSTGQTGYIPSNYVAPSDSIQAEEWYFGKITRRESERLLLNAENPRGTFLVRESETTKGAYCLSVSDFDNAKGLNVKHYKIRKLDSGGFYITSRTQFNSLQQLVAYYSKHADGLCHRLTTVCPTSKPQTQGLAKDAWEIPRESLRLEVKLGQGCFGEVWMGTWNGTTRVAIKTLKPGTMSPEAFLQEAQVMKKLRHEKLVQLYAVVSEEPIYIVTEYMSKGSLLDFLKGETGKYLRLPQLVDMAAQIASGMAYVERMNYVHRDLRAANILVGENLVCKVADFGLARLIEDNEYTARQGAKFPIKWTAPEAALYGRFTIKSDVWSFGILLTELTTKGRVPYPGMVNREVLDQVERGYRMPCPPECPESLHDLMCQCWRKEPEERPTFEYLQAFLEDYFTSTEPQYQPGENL
# Procedure: (§3) Enzymatic assays to determine the kinase inhibitory activity of NCEs were performed using an automatic liquid-handling device (Microlab STAR Hamilton) and Z’-LYTE Kinase Assay Platform, a fluorescence resonance energy transfer (FRET)-based assay platform compatible with high-throughput screening (HTS) applications. […] The assay procedure was carried out according to the supplier’s indications. […] Final results have been expressed as percent inhibition, and IC50 values were calculated by non-linear curve fitting using GraphPad Prism software (version 6 for Windows). The inter-experimental variability of IC50 values resulted within accepted limits of ±0.5 log units.
# LynA = molecular target: T1, LynA (Homo sapiens, UniProt P07948); test: Z'-LYTE kinase assay (FRET), SFK profiling; format: biochemical; details: isolated enzyme, mean ± SD of two independent experiments; read-out: Lyn IC50
# T1 construct: (Fyn, LynA, and Yes1, all human recombinant full-length proteins)
# T1 sequence (P07948 whole entry): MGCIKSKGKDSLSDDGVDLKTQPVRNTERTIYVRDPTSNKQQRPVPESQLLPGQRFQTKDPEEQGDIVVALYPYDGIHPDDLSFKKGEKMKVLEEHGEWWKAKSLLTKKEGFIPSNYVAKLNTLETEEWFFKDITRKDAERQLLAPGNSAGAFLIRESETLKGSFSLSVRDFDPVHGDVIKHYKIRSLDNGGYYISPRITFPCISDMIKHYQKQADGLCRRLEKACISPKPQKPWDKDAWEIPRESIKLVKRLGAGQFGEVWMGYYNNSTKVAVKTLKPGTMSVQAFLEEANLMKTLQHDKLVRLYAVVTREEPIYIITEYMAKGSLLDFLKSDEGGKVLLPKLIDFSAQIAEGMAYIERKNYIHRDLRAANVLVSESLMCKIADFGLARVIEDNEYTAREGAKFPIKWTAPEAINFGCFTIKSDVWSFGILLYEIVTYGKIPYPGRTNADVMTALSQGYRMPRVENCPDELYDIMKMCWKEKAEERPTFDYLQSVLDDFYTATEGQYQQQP
# Procedure: as §3
# Yes1 = molecular target: T2, Yes1 (Homo sapiens, UniProt P07947); test: Z'-LYTE kinase assay (FRET), SFK profiling; format: biochemical; details: isolated enzyme, mean ± SD of two independent experiments; read-out: Yes IC50
# T2 construct: (Fyn, LynA, and Yes1, all human recombinant full-length proteins)
# T2 sequence (P07947 whole entry): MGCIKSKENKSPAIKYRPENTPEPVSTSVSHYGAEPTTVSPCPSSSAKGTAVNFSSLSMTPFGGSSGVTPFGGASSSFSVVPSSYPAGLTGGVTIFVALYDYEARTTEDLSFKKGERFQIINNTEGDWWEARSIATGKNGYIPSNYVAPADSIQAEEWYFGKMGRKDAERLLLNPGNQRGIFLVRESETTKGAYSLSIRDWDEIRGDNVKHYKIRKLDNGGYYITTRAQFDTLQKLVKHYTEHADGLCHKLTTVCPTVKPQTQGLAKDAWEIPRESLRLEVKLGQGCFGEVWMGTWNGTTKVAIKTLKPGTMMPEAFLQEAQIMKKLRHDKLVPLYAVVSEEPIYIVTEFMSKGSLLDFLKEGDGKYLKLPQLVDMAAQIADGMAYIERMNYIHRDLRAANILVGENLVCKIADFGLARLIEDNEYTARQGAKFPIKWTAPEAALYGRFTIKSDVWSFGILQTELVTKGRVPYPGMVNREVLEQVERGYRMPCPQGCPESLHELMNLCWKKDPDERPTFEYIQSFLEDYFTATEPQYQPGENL
# Procedure: as §3
# Fyn = molecular target: T3, Fyn (Homo sapiens, UniProt P06241); test: Z'-LYTE kinase assay (FRET), SFK profiling; format: biochemical; details: isolated enzyme, mean ± SD of two independent experiments
# T3 construct: (Fyn, LynA, and Yes1, all human recombinant full-length proteins)
# T3 sequence (P06241 whole entry): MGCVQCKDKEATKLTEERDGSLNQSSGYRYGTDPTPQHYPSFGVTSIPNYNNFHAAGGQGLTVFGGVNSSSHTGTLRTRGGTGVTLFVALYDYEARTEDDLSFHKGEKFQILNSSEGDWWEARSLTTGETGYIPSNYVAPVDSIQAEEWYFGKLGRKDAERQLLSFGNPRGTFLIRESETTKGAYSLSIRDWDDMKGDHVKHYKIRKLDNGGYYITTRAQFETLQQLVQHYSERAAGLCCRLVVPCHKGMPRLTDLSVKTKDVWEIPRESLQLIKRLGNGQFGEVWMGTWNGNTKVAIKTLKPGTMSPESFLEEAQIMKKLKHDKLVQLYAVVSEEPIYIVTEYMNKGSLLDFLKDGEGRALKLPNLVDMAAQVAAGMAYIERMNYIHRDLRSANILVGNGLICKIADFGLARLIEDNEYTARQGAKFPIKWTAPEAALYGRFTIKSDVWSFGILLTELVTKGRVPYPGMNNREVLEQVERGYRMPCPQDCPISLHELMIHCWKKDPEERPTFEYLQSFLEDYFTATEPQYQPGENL
# Procedure: as §3
# [2] = tested on: SH-SY5Y neuroblastoma cell line; test: Antiproliferative assay, viable cell count after 72 h; format: cell-based, human; details: for increased activity compared to the hit compound 2 on SH-SY5Y cells: 72 h, ratio of IC50 values; for IC50: Homo sapiens, 72 h incubation, read-out: IC50 antiproliferative activity on SH-SY5Y cells
# Procedure: (§1) Starting from these promising results in enzymatic assays, we decided to test NCEs 4 on K562 CML and SH-SY5Y NB cell lines, to evaluate if they are endowed with an increased antiproliferative activity compared with the hit compound 2. A hyperactivation of SFKs has been detected in both K562 and SH-SY5Y cell lines. Cells were treated with increasing concentrations of compounds and cell proliferation was measured by counting viable cells after 72 h of incubation. […] The activity of these compounds could be due not only to Src inhibition, but also to their effect on Fyn and Lyn, both involved in NB development.
# (§2) In vitro experiments were carried out using human neuroblastoma cell line SH-SY5Y, human glioblastoma cell line U-87, and human erythroleukemia cell line K-562. Cell lines were obtained from American Tissue Culture Collection (ATCC, SH-SY5Y CRL-2266; U-87 HTB-14; K-562 CCL-243). K-562 cells were cultured in RPMI medium with 10% FCS. SH-SY5Y and U-87 cells were cultured in DMEM medium with 10% FCS. In order to determine antiproliferative effect of NCE compounds cells were seeded at density of 5 × 10^4 cells/mL (K-562) or 10 × 10^4 cells/cm^2 (SH-SY5Y, U-87) and treated with increasing concentrations of NCE compounds. Control cells were treated with the vehicle of the experimental point containing the highest percentage of DMSO. Cell cultures were maintained at 37 °C in 5% v/v CO2 for 72 h. Cell number and vitality were evaluated on cell suspension using the automatic cell counter NucleoCounter® (Chemometec, Denmark). Results from the NucleoCounter represented either total or non-viable cell concentration, depending on the sample preparation indicated by the manufacturer. Each experiment was performed at least three times and results were expressed as mean and standard deviation.
# [3] = tested on: U87 glioblastoma multiforme cells; test: as above; format: cell-based; details: Homo sapiens; U87, 72 h incubation
# Procedure: A possible explanation could be the multidrug resistance mechanisms that GBM cells usually carry: an example is the overexpression of membrane channels (ABCB1) that are able to pump different kind of drugs out of the cells. In Supplementary Materials, Figure S1, the activity of other NCEs on U87 GBM cell line are reported.
# as §2, with “Results from the NucleoCounter represented either total or non-viable cell concentration, depending on the sample preparation indicated by the manufacturer.” left out
# K562 CML cell line [4] = test: as above; format: cell-based; details: Homo sapiens; K562, 72 h incubation; read-out: IC50 antiproliferative activity on K562 cells
# Procedure: as §1
# In vitro experiments were carried out using human neuroblastoma cell line SH-SY5Y, human glioblastoma cell line U-87, and human erythroleukemia cell line K-562. Cell lines were obtained from American Tissue Culture Collection (ATCC, SH-SY5Y CRL-2266; U-87 HTB-14; K-562 CCL-243). K-562 cells were cultured in RPMI medium with 10% FCS. SH-SY5Y and U-87 cells were cultured in DMEM medium with 10% FCS. […] Cell number and vitality were evaluated on cell suspension using the automatic cell counter NucleoCounter® (Chemometec, Denmark). […] Each experiment was performed at least three times and results were expressed as mean and standard deviation.
# Jak2 = tested on: Jak2; set-up: method as in PMID 24359159; details: cited from earlier work
# K562 CML cell line [5] = tested on: K562 CML cell line; set-up: method as in PMID 26514807; details: previous work; cited from earlier work
# [6] = tested on: SH-SY5Y neuroblastoma cell line; set-up: method as in PMID 26514807; details: previous work; cited from earlier work
SMILES,IC50 [1],IC50 (LynA),IC50 (Yes1),IC50 (Fyn),melting point,IC50 [2],IC50 [3],IC50 (K562 CML cell line [4]),increased activity compared to the hit compound 2 on SH-SY5Y cells [2],IC50 (Jak2),IC50 (K562 CML cell line [5]),IC50 [6]
"COc1cccc(CCn2cnc(Nc3cc(N4CCN(CCO)CC4)nc(C)n3)c2)c1 [4a, 2-{4-[6-({1-[2-(3-Methoxyphenyl)ethyl]-1H-imidazol-4-yl}amino)-2-methylpyrimidin-4-yl]piperazin-1-yl}ethanol]",260 ± 23 nM,451 ± 13 nM,560 ± 40 nM,146 ± 30 nM,–,–,–,–,–,–,–,–
"COc1ccccc1CCn1cnc(Nc2cc(N3CCN(CCO)CC3)nc(C)n2)c1 [4c, 2-{4-[6-({1-[2-(2-Methoxyphenyl)ethyl]-1H-imidazol-4-yl}amino)-2-methylpyrimidin-4-yl]piperazin-1-yl}ethanol]",225 ± 8 nM,145 ± 31 nM,55 ± 9 nM,439 ± 45 nM,–,–,–,–,–,–,–,–
"COc1ccccc1CCn1cnc(Nc2cc(N3CCN(CC(N)=O)CC3)nc(C)n2)c1 [4d, 2-{4-[6-({1-[2-(2-Methoxyphenyl)ethyl]-1H-imidazol-4-yl}amino)-2-methylpyrimidin-4-yl]piperazin-1-yl}acetamide]",1530 ± 44 nM,1200 ± 189 nM,–,1390 ± 93 nM,–,–,–,–,–,–,–,–
"Cc1nc(Nc2cn(CCc3ccccc3O)cn2)cc(N2CCN(CCO)CC2)n1 [4e, 2-{2-[4-({6-[4-(2-Hydroxyethyl)piperazin-1-yl]-2-methylpyrimidin-4-yl}amino)-1H-imidazol-1-yl]ethyl}phenol]",59 ± 5 nM,17 ± 0.54 nM,11 ± 0.6 nM,73 ± 5 nM,–,–,–,–,–,–,–,–
"Cc1nc(Nc2cn(CCc3ccccc3O)cn2)cc(N2CCN(CC(N)=O)CC2)n1 [4g, 2-{4-[6-({1-[2-(2-Hydroxyphenyl)ethyl]-1H-imidazol-4-yl}amino)-2-methylpyrimidin-4-yl]piperazin-1-yl}acetamide]",40 ± 5 nM,19 ± 2 nM,15 ± 4 nM,40 ± 5 nM,160 to 163 °C,–,–,–,–,–,–,–
"Cc1nc(Nc2cn(CCc3cccc(O)c3)cn2)cc(N2CCN(C(=O)OC(C)(C)C)CC2)n1 [4l, tert-Butyl4-[6-({1-[2-(3-hydroxyphenyl)ethyl]-1H-imidazol-4-yl}amino)-2-methylpyrimidin-4-yl]piperazine-1-carboxylate]",50 ± 3 nM,26 ± 3 nM,7 ± 0.35 nM,14 ± 1.5 nM,127 to 130 °C,7800 nM,13300 nM,18900 nM,more than 2 fold,–,–,–
Cc1cc(Nc2nc(N[C@@H](C)c3ncc(F)cn3)ncc2Cl)n[nH]1 [AZD1480],–,–,–,–,–,–,–,–,–,58 nM,–,–
Cc1nc(Nc2cn(CCc3ccccc3)cn2)cc(N2CCN(CCO)CC2)n1 [compound 2],–,–,–,–,–,–,–,–,–,–,> 25000 nM,25000 nM

# The next lines start with results.
IC50 [1],IC50 (LynA),IC50 (Yes1),IC50 (Fyn),melting point,IC50 [2],IC50 [3],IC50 (K562 CML cell line [4]),SMILES,increased activity compared to the hit compound 2 on SH-SY5Y cells [2],IC50 (Jak2),IC50 (K562 CML cell line [5]),IC50 [6]
1480 ± 185 nM,1810 ± 307 nM,1840 ± 812 nM,1450 ± 768 nM,198 to 200 °C,–,–,–,"COc1cccc(CCn2cnc(Nc3cc(N4CCN(CC(N)=O)CC4)nc(C)n3)c2)c1 [4b, 2-{4-[6-({1-[2-(3-Methoxyphenyl)ethyl]-1H-imidazol-4-yl}amino)-2-methylpyrimidin-4-yl]piperazin-1-yl}acetamide]",–,–,–,–
56 ± 5 nM,51 ± 3 nM,3 ± 1 nM,50 ± 4 nM,193 to 196 °C,–,–,–,"Cc1nc(Nc2cn(CCc3ccccc3O)cn2)cc(N2CCNCC2)n1 [4f, 2-(2-{4-[(2-Methyl-6-piperazin-1-ylpyrimidin-4-yl)amino]-1H-imidazol-1-yl}ethyl)phenol]",–,–,–,–
93 ± 19 nM,20 ± 0.8 nM,3 ± 1 nM,10 ± 0.4 nM,150 to 155 °C,–,–,–,"Cc1nc(Nc2cn(CCc3cccc(O)c3)cn2)cc(N2CCN(CCO)CC2)n1 [4h, 3-{2-[4-({6-[4-(2-Hydroxyethyl)piperazin-1-yl]-2-methylpyrimidin-4-yl}amino)-1H-imidazol-1-yl]ethyl}phenol]",–,–,–,–
83 ± 18 nM,27 ± 1 nM,3 ± 0.8 nM,10 ± 0.4 nM,193 to 196 °C,–,–,–,"Cc1nc(Nc2cn(CCc3cccc(O)c3)cn2)cc(N2CCNCC2)n1 [4i, 3-(2-{4-[(2-Methyl-6-piperazin-1-ylpyrimidin-4-yl)amino]-1H-imidazol-1-yl}ethyl)phenol]",–,–,–,–
40 ± 3 nM,10 ± 1.2 nM,3 ± 0.7 nM,12 ± 2 nM,–,–,–,–,"Cc1nc(Nc2cn(CCc3cccc(O)c3)cn2)cc(N2CCN(CC(N)=O)CC2)n1 [4j, 2-{4-[6-({1-[2-(3-Hydroxyphenyl)ethyl]-1H-imidazol-4-yl}amino)-2-methylpyrimidin-4-yl]piperazin-1-yl}acetamide]",–,–,–,–
40 ± 2 nM,18 ± 1 nM,3 ± 1 nM,9 ± 1 nM,127 to 130 °C,8600 nM,12600 nM,11700 nM,"COC(=O)CN1CCN(c2cc(Nc3cn(CCc4cccc(O)c4)cn3)nc(C)n2)CC1 [4k, Methyl{4-[6-({1-[2-(3-hydroxyphenyl)ethyl]-1H-imidazol-4-yl}amino)-2-methylpyrimidin-4-yl]piperazin-1-yl}acetate]",more than 2 fold,–,–,–
